In this assay the target is human MRGPRD (Homo sapiens, UniProt Q8TDS7). In words: MRGPRD antagonist activity, IP-One HTRF assay in CHO cells stably expressing human MRGPRD (versus 100 μM β-Alanine agonist). The assay is classed as cell-based. A digest of the protocol: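 IP-1 HTRF read-out, with IC50 from HTRF ratio curves and percent antagonism relative to maximal efficacy (mean, SEM). Antagonists and agonist were co-incubated 1 h at 37 °C plus 1 h at room temperature on overnight-plated MRGPRD-CHO cells in LiCl-containing Tris buffer, pH 8.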
Sequence of human MRGPRD (Q8TDS7 whole entry): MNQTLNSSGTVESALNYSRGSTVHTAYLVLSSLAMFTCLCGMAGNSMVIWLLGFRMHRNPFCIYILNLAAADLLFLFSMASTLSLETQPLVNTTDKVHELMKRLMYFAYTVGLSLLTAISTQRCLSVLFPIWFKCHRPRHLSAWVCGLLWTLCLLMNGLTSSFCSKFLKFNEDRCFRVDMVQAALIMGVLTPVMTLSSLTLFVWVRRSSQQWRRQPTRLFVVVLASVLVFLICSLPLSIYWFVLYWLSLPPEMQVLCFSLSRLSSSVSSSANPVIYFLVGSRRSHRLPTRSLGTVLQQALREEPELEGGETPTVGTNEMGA

As to `CC(C)n1cc(-c2ccc(-n3nnc(C(=O)Nc4ccncc4)c3C3CC3)cc2)cn1` [Compound 7-175], the half-maximal inhibitory concentration (IC50) lay in the range of 1000 to 3000 nM. As for `O=C(Nc1ccncc1)c1nnn(-c2ccc(-c3cscn3)cc2)c1C1CC1` [Compound 7-176], the figure is 1000 to 3000 nM. As for `O=C(Nc1ccncc1)c1nnn(-c2ccc(-c3nccs3)cc2)c1C1CC1` [Compound 7-177], the figure is 1000 to 3000 nM. `O=C(Nc1ccncc1)c1nnn(-c2ccc(-c3ccncc3)cc2)c1C1CC1` [Compound 7-178] registered an IC50 of 1000 to 3000 nM. As for `O=C(Nc1ccncc1)c1nnn(-c2ccc(-c3cccnc3)cc2)c1C1CC1` [Compound 7-179], the figure is 1000 to 3000 nM; as for `N#Cc1ccccc1-c1ccc(-n2nnc(C(=O)Nc3ccncc3)c2C2CC2)cc1` [Compound 7-180], 1000 to 3000 nM. As to `Cc1cscc1-c1ccc(-n2nnc(C(=O)Nc3ccncc3)c2C2CC2)cc1` [Compound 7-181], the half-inhibitory concentration (IC50) is 1000 to 3000 nM. As for `Cc1ccc(-c2ccc(-n3nnc(C(=O)Nc4ccncc4)c3C3CC3)cc2)s1` [Compound 7-182], the concentration for half-maximal inhibition (IC50) lay within 1000 to 3000 nM.

In turn, `O=C(Nc1ccncc1)c1nnn(-c2ccc(-c3cc(C(F)(F)F)[nH]n3)cc2)c1C1CC1` [Compound 7-183] registered an IC50 of 1000 to 3000 nM. With `Cn1cc(C#N)c(-c2ccc(-n3nnc(C(=O)Nc4ccncc4)c3C3CC3)cc2)n1` [Compound 7-184], the IC50 fell in the range of 1000 to 3000 nM.

For `COc1ccc(-c2ccc(-n3nnc(C(=O)Nc4ccncc4)c3C3CC3)cc2)cc1F` [Compound 7-185], the IC50 lay in the range of 1000 to 3000 nM. As for `O=C(Nc1ccncc1)c1nnn(-c2ccc(-c3ccccc3OC(F)(F)F)cc2)c1C1CC1` [Compound 7-186], the figure is 1000 to 3000 nM. As for `O=C(Nc1ccncc1)c1nnn(-c2ccc(-c3cncs3)cc2)c1C1CC1` [Compound 7-187], the figure is 1000 to 3000 nM.

For the molecule `Cn1ncc(C#N)c1-c1ccc(-n2nnc(C(=O)Nc3ccncc3)c2C2CC2)cc1` [Compound 7-188], the 50% inhibitory concentration (IC50) lay within 1000 to 3000 nM.

For `CCn1cc(-c2ccc(-n3nnc(C(=O)Nc4ccncc4)c3C3CC3)cc2)c(C)n1` [Compound 7-189], the half-inhibitory concentration (IC50) was 1000 to 3000 nM.

`O=C(Nc1ccncc1)c1nnn(-c2ccc(-c3cccc(F)c3)cc2)c1C1CC1` [Compound 7-190] yielded a 50% inhibitory concentration (IC50) of 1000 to 3000 nM.

On to `Cc1cc(-c2ccc(-n3nnc(C(=O)Nc4ccncc4)c3C3CC3)cc2)sn1` [Compound 7-191], for which the IC50 was 1000 to 3000 nM. As for `Cn1ncc(CO)c1-c1ccc(-n2nnc(C(=O)Nc3ccncc3)c2C2CC2)cc1` [Compound 7-192], the figure is 1000 to 3000 nM; as for `Cc1cnn(C2CCCCO2)c1-c1ccc(-n2nnc(C(=O)Nc3ccncc3)c2C2CC2)cc1` (centres unmarked) [Compound 7-193], 1000 to 3000 nM; as for `COc1ncc(-c2ccc(-n3nnc(C(=O)Nc4ccncc4)c3C3CC3)cc2)cn1` [Compound 7-194], 1000 to 3000 nM. As for `O=C(Nc1ccncc1)c1nnn(-c2ccc(-c3ccc(OC(F)(F)F)cc3)cc2)c1C1CC1` [Compound 7-195], the figure is 1000 to 3000 nM.

As for `O=C(Nc1ccncc1)c1nnn(-c2ccc(-c3ccc4[nH]ccc4c3)cc2)c1C1CC1` [Compound 7-196], the half-maximal inhibitory concentration (IC50) lay in the range of 1000 to 3000 nM. On to `NS(=O)(=O)c1ccccc1-c1ccc(-n2nnc(C(=O)Nc3ccncc3)c2C2CC2)cc1` [Compound 7-197], for which the half-inhibitory concentration (IC50) was in the range of 1000 to 3000 nM. In turn, `Cc1cc(-c2ccc(-n3nnc(C(=O)Nc4ccncc4)c3C3CC3)cc2)on1` [Compound 7-198] returned an IC50 of 1000 to 3000 nM. Molecule `CCc1ccc(-c2ccc(-n3nnc(C(=O)Nc4ccncc4)c3C3CC3)cc2)cc1` [Compound 7-199] gave a 50% inhibitory concentration (IC50) of 1000 to 3000 nM. As to `O=C(Nc1ccncc1)c1nnn(-c2ccc(-c3ccccn3)cc2)c1C1CC1` [Compound 7-200], the IC50 lay within 1000 to 3000 nM. As for `CC(C)(C)c1cccc(-c2ccc(-n3nnc(C(=O)Nc4ccncc4)c3C3CC3)cc2)c1` [Compound 7-201], the figure is 1000 to 3000 nM; as for `O=C(Nc1ccncc1)c1nnn(-c2ccc(-c3ccc(C4CCCC4)cc3)cc2)c1C1CC1` [Compound 7-202], 1000 to 3000 nM; as for `O=C(Nc1ccncc1)c1nnn(-c2ccc(-c3cncnc3)cc2)c1C1CC1` [Compound 7-203], 1000 to 3000 nM.

The molecule `CN(C)C(=O)c1cccc(-c2ccc(-n3nnc(C(=O)Nc4ccncc4)c3C3CC3)cc2)c1` [Compound 7-204] yielded an IC50 of 1000 to 3000 nM. As for `Cc1cc(NC(=O)c2nnn(-c3ccc(-c4ccccc4)c(F)c3)c2C2CC2)ccn1` [Compound 7-205], the figure is 1000 to 3000 nM. As for `Cc1cc(-c2ccc(-n3nnc(C(=O)Nc4ccncc4)c3C3CC3)cc2)n[nH]1` [Compound 7-206], the figure is 1000 to 3000 nM; as for `CN(C)C(=O)c1ccc(-c2ccc(-n3nnc(C(=O)Nc4ccncc4)c3C3CC3)cc2)cc1` [Compound 7-207], 1000 to 3000 nM; as for `CCc1ccccc1-c1ccc(-n2nnc(C(=O)Nc3ccncc3)c2C2CC2)cc1` [Compound 7-208], 1000 to 3000 nM. `Cc1nn(C)c(C)c1-c1ccc(-n2nnc(C(=O)NCc3nc4ccccc4n3C)c2C2CC2)cc1` [Compound 7-209] came in with an IC50 of 1000 to 3000 nM. As to `CN(C)Cc1ccc(-c2ccc(-n3nnc(C(=O)Nc4ccncc4)c3C3CC3)cc2)cc1` [Compound 7-210], the half-maximal inhibitory concentration (IC50) was in the range of 1000 to 3000 nM.

In turn, `O=C(Nc1ccncc1)c1nnn(-c2ccc(-c3cc(CO)[nH]n3)cc2)c1C1CC1` [Compound 7-211] yielded a half-maximal inhibitory concentration (IC50) of 1000 to 3000 nM. As for `CC(C)Cn1nc(C(F)(F)F)cc1-c1ccc(-n2nnc(C(=O)Nc3ccncc3)c2C2CC2)cc1` [Compound 7-212], the figure is 1000 to 3000 nM; as for `O=C(O)c1cccc(-c2ccc(-n3nnc(C(=O)Nc4ccncc4)c3C3CC3)cc2)c1` [Compound 7-213], above 3000 nM; as for `CC(C)c1ccc(-c2ccc(-n3nnc(C(=O)Nc4ccncc4)c3C3CC3)cc2)cc1` [Compound 7-214], above 3000 nM. As for `Cn1nc(-c2ccc(-n3nnc(C(=O)Nc4ccncc4)c3C3CC3)cc2)cc1N` [Compound 7-215], the figure is above 3000 nM; as for `N#Cc1cnn(-c2ccccc2)c1-c1ccc(-n2nnc(C(=O)Nc3ccncc3)c2C2CC2)cc1` [Compound 7-216], above 3000 nM; as for `Cn1cc(-c2ccc(-n3nnc(C(=O)Nc4ccncc4)c3C3CC3)cc2)c(C(F)(F)F)n1` [Compound 7-217], above 3000 nM.

`Cn1cc(-c2ccc(-n3nnc(C(=O)Nc4ccncc4)c3C3CC3)cc2)c(C2CC2)n1` [Compound 7-218] registered an IC50 above 3000 nM. As for `CCn1nc(C)c(-c2ccc(-n3nnc(C(=O)Nc4ccnc(C)c4)c3C3CC3)c(F)c2)c1C` [Compound 7-219], the figure is below 100 nM; as for `Cc1cc(NC(=O)c2nnn(-c3ccc(-c4c(C)nn(C)c4C)cc3F)c2C2CC2)ccn1` [Compound 7-220], below 100 nM. As for `Cc1nn(C)c(C)c1-c1ccc(-n2nnc(C(=O)Nc3ccncc3)c2C2CC2)c(F)c1` [Compound 7-221], the figure is below 100 nM; as for `Cc1cc(NC(=O)c2nnn(-c3ccc(-c4c(C)nn(CC(F)(F)F)c4C)cc3F)c2C2CC2)ccn1` [Compound 7-222], below 100 nM. `Cc1cc(NC(=O)c2nnn(-c3ccc(-c4c(C)nn(-c5ccccc5)c4C)cc3F)c2C2CC2)ccn1` [Compound 7-223] showed a 50% inhibitory concentration (IC50) below 100 nM. `Cc1cc(NC(=O)c2nnn(-c3ccc(-c4c(C)nn(C)c4F)cc3F)c2C2CC2)ccn1` [Compound 7-224] came in with a half-inhibitory concentration (IC50) below 100 nM.

With `Cc1ccc(C2(NC(=O)c3nnn(-c4ccc(-c5c(C)nn(-c6ccccc6)c5C)cc4F)c3C3CC3)CC2)cn1` [Compound 7-225], the 50% inhibitory concentration (IC50) is below 100 nM. As for `COc1cc(-c2c(C)nn(C)c2C)ccc1-n1nnc(C(=O)Nc2ccncc2)c1C1CC1` [Compound 7-226], the figure is 100 to 500 nM; as for `Cc1ccc(C2(NC(=O)c3nnn(-c4ccc(-c5ccc(C#N)cc5)cc4F)c3C3CC3)CC2)cn1` [Compound 7-227], 100 to 500 nM.

For the molecule `COc1cc(-c2ccc(C#N)cc2)ccc1-n1nnc(C(=O)Nc2ccnc(C)c2)c1C1CC1` [Compound 7-228], the IC50 is 100 to 500 nM. Turning to `CC(=O)c1ccc(-c2cccc(-n3nnc(C(=O)Nc4ccncc4)c3C3CC3)c2)c(F)c1` [Compound 7-229], the IC50 was 100 to 500 nM.

For the molecule `Cc1cc(-c2ccc(C#N)cc2)ccc1-n1nnc(C(=O)Nc2ccncc2)c1C1CC1` [Compound 7-230], the IC50 lay in the range of 100 to 500 nM. As to `CC(=O)c1ccc(-c2ccc(-n3nnc(C(=O)Nc4ccncc4)c3C3CC3)c(C)c2)cc1` [Compound 7-231], the IC50 is 100 to 500 nM.

Consider `Cc1nn(C)c(C)c1-c1ccc(-n2nnc(C(=O)Nc3ccncc3)c2C2CC2)cn1` [Compound 7-232], for which the IC50 lay in the range of 100 to 500 nM. As for `Cc1cc(NC(=O)c2nnn(-c3cccc(-c4ccn(C5CC5)n4)c3)c2C2CC2)ccn1` [Compound 7-233], the figure is 100 to 500 nM; as for `Cc1nn(C)c(C)c1-c1ccc(-n2nnc(C(=O)Nc3ccncc3)c2C2CC2)cc1F` [Compound 7-234], 100 to 500 nM. Take `Cc1cc(NC(=O)c2nnn(-c3ccc(-c4ccc(C#N)cc4)c(F)c3)c2C2CC2)ccn1` [Compound 7-235]: the 50% inhibitory concentration (IC50) was 100 to 500 nM.

`Cc1cc(NC(=O)c2nnn(-c3cccc(-c4ccn(C5CCCC5)n4)c3)c2C2CC2)ccn1` [Compound 7-236] displayed an IC50 of 100 to 500 nM. Regarding `CC(=O)c1cccc(-c2cccc(-n3nnc(C(=O)Nc4ccncc4)c3C3CC3)c2)c1` [Compound 7-237], the 50% inhibitory concentration (IC50) fell in the range of 100 to 500 nM. As for `CC(=O)c1ccc(-c2ccc(-n3nnc(C(=O)Nc4ccncc4)c3C3CC3)cc2C)cc1` [Compound 7-238], the figure is 100 to 500 nM; as for `Cc1nn(C)c(C)c1-c1ccc(-n2nnc(C(=O)Nc3ccncc3)c2C2CC2)c(OC(F)(F)F)c1` [Compound 7-239], 100 to 500 nM; as for `Cc1c(-c2cccc(-n3nnc(C(=O)Nc4ccncc4)c3C3CC3)c2)cnn1-c1ccccc1` [Compound 7-240], 100 to 500 nM. As for `O=C(Nc1ccncc1)c1nnn(-c2cccc(-c3cnn(CC4CC4)c3)c2)c1C1CC1` [Compound 7-241], the figure is 500 to 1000 nM; as for `Cc1cc(NC(=O)c2nnn(-c3ccc(-c4ccc(C#N)cc4)nc3)c2C2CC2)ccn1` [Compound 7-242], 500 to 1000 nM.

A word on the IC50: it is the concentration that gives 50% inhibition. Read a high IC50 as a need for much substance.

Values taken from US20260001871A1, “TRIAZOLE DERIVATIVES AS MODULATORS OF MAS-RELATED G-PROTEIN RECEPTOR D” (ESCIENT PHARMACEUTICALS, INC., priority 2022, published 2026).
